Results on 1 molecule are retold here after article PMC4580987, “Catalytic site inhibition of insulin-degrading enzyme by a small molecule induces glucose intolerance in mice” (Nature Communications, 2015).

One data set deals with isolated mouse islets. To be noted: 3 or 10 µM. Here is the method: Digestion was stopped by addition of cold HBSS with 10% FCS. The islets were washed twice in HBSS with FCS and once in RPMI with FCS. […] The next day, the islets were incubated in fresh DMEM with 10% FCS without glucose for 90 min. Then glucose at 2.8 mM together with BDM44378 was added; after 1 h, the supernatant was removed and replaced by fresh medium with 28 mM glucose, followed by another 1-h incubation in the presence or absence of inhibitor.

The nature of a further data set: Stability in rat plasma. Format: in vitro ADME. Conditions: both sexes, 37 °C, read-out: Plasma stability r (t1/2). Here is the method:
(§1) Incubations were performed in duplicate in Eppendorf tubes. The plasma (mouse plasma, rat plasma (mixed gender), human (mixed gender, all lithium heparine, from Sera Laboratories International) or cell culture medium (differenciation medium: DMEM (Life Technologies, Ref 41965), 0.4 % gentamicine, 10 % FCS (Lonza, Ref DE14-801F) or proliferation medium: DMEM (Life Technologies, Ref 41965), 0.4 % gentamicine, 2 % horse serum (Gbco, Ref16050) was pre-incubated 5 min at 37 °C before the addition of test compounds to a final concentration of 10 μM (1% DMSO maximum). At the defined time points, 50 μl from each tube were removed to another tube containing 450 μl of cold CH3CN+ internal standard (1 μM). After centrifugation (10 min at 10,000 r.p.m.), supernatants are analysed. The degradation half-life (t1/2) values were calculated as t1/2=0.693/k where k is the first-order degradation rate constant. The degradation rate constant (k) was estimated by one-phase exponential decay nonlinear regression analysis of the degradation time course data using Xlfit software (version 2.1.2 or higher) from IDBS.Ltd.

The nature of another data set: Solubility in PBS pH 7.4. It counts as physicochemical. To be noted: aqueous buffer, kinetic from dmso stock. Here is the method:
Ten microlitre of a 10 mM solution in DMSO of the compound are diluted either in 490 μl of PBS pH 7.4 or in organic solvent MeOH in a 700 μl-microtube (in triplicate). The tubes are gently shaken 24 h at room temperature, then centrifuged for 5 min at 4,000 r.p.m. The mixtures are filtered over 0.45 μm filters (Millex-LH Millipore). Twenty microlitre of sample are diluted in 180 μl of MeOH. The solubility is determined by the ratio of mass signal area PBS/ organic solvent. Forty microlitre of a 10 mM solution in DMSO of the compound were diluted in 1.960 ml of a 1/1 octanol /PBS at pH 7.4 mixture. The mixture was gently shaken 2 h at room temperature. Twenty microlitre of each phase was diluted in 480 μl of MeOH and analysed by LC–MS. Each compound is tested in triplicate. Log D was determined as the logarithm of the ratio of concentration of product in octanol and PBS respectively, determined by mass signals.

Data set [1] can be described thus: Stability in mouse plasma. To be noted: 37 °C, read-out: Plasma stability m (t1/2). Format: in vitro ADME. How it is done: as §1
Data set [2] concerns insulin receptor, Akt and ERK phosphorylation. Nature of the data set: Insulin signalling by western blotting in liver and muscle. Format: in vivo, mouse. To be noted: 50 mg kg^−1 ip, after insulin injection. Here is the method: Liver and muscle were homogenized in a lysis buffer (1% triton, 0.5 % deoxycholate, 10 mM Na pyruvate, 2 mM Na Vanadate, 100 mM NaF) supplemented with the proteases inhibiteurs cocktails) and the resulting homogenate clarified by centrifugation. Proteins expression and phosphorylation were evaluated by western blot analysis. The signals were detected with a Pierce ECL western blotting substrate (Thermo scientific), according the manufacturer instructions. Primary antibodies were diluted at 1/1,000 and incubated overnight in PBS 0.1% Tween 20, 5% milk.

Data set [3] in a line: Stability in human plasma. It counts as in vitro ADME. Conditions: both sexes, read-out: Plasma stability h (t1/2). Here is the method:
as §1

The nature of a further data set: Microsomal stability. It counts as in vitro ADME. To be noted: male, CD-1, pH 7.4, mouse liver microsomes, read-out: Microsomal stability m (t1/2). How it is done:
Male mouse (CD-1) liver microsomes (BD Gentest) were used. All incubations were performed in duplicate in a shaking water bath at 37 °C. The incubation mixtures contained 1 μM compound with 1% methanol used as a vehicle, mouse liver microsomes (0.6 mg of microsomal protein per mL), 5 mM MgCl2, 1 mM NADP, 5 mM glucose 6-phosphate, 0.4 U ml^−1 glucose 6-phosphate dehydrogenase, and 50 mM potassium phosphate buffer (pH 7.4) in a final volume of 1.5 ml. Samples were taken at 5, 10, 20, 30 and 40 min after microsome addition, and reactions stopped by adding ice-cold acetonitrile containing 1 μM internal standard (four volumes). Centrifugation of the samples for 10 min at 10,000g and 4 °C allowed to pellet precipitated microsomal proteins, and supernatant was subjected LC−MS/MS analysis, in acetonitrile containing 1 μM internal standard. Each compound was quantified by converting the corresponding analyte/internal standard peak area ratios to percentage drug remaining, using the initial ratio values in control incubations as 100%. Propranolol, known as a high hepatic clearance drug in rodents, was used as a quality-control compound for the microsomal incubations. […] The slope of the linear regression from log percentage remaining versus incubation time relationships (-k) was used in the conversion to in vitro t1/2 values by: t1/2=−0.693/k.

SMILES strings stand for the structures. Converted amounts (≈) assume the structure as drawn. “Also recorded” adds a separate entry of the source.

With `O=C(C[C@@H](Cc1ccc2ccccc2c1)n1cc(CNC(=O)c2ccc(F)cc2)nn1)NO` [Compound 1], in the data set on isolated mouse islets (islets from Ide−/− mice), the “insulin in the supernatant of islets, Ide−/−” value was “did not respond”. Further, in the data set with isolated mouse islets (islets from wild-type C57BL/6J mice, 2.8 and 28 mM glucose), the “insulin detectable in the supernatant of islets, wild-type” value is “increased, in a dose-dependent manner”. Besides, the values for the half-life at 10 μM (in “Stability in rat plasma”; in data set [1]; in data set [3]) were 13.3 h, 24 h and above 24 h, respectively. In the data set “Solubility in PBS pH 7.4”, this molecule registered a solubility at 24 h of 58 µM (≈ 26 µg/mL). For the same molecule, in data set [2], the “insulin signalling: phosphorylation of insulin receptor, Akt and ERK in liver and muscle” value was “Increase insulin signaling; also recorded: increased the phosphorylation”. In the data set “Microsomal stability”, the half-life at 1 μM was 0.333 h.
